Test results as given in US6492381B1, “Tricyclic carbamate compounds useful for inhibition of G-protein function and for treatment of proliferative diseases” (Schering Corp., priority 1993, dated 2002).

Legend:
[1] = test system: M27 [mouse Lewis lung carcinoma]; assay: In vivo anti-tumor study, M27 s.c. tumor; conditions: po
Text: In Vivo Anti-Tumor Studies
Tumor cells (5×10^5 to 8×10^6 of M27 [mouse Lewis lung carcinoma], A431 [human epidermal carcinoma] or SW620 [human colon adenocarcinoma (lymph node metastasis)]) are innoculated subcutaneously into the flank of 5-6 week old athymic nu/nu female mice. For the C-f-1 [mouse fibroblast transformed with c-fos oncogene] tumor model, 2 mm^3 tumor fragments are transplanted subcutaneously into the flank of 5-6 week old athymic nu/nu female mice. Tumor bearing animals are selected and randomized when the tumors are established. Animals are treated with vehicle (beta cyclodextran for i.p. or corn oil for p.o.) only or compounds in vehicle twice a day (BID) for 5 (1-5) or 7 (1-7) days per week for 2 (×2) or 4 (×4) weeks. The percent inhibition of tumor growth relative to vehicle controls are determined by tumor measurements.

[2] = test system: disordered cell growth induced by transforming Ras-CVLS in COS monkey kidney cells; assay: Cell-based assay: disordered cell growth induced by transforming Ras in COS cells (microscopy)
Text: (§1) 2. Cell-Based Assay: Transient expression of val^12-Ha-Ras-CVLS and val^12-Ha-Ras-CVLL in COS monkey kidney cells: Effect of farnesyl protein transferase inhibitors on Ras processing and on disordered cell growth induced by transforming Ras.
(§2) COS monkey kidney cells were transfected by electroporation with the plasmid pSV-SPORT (Gibco/BRL) containing a cDNA insert encoding either Ras-CVLS or Ras-CVLL, leading to transient overexpression of a Ras substrate for either farnesyl protein transferase or geranylgeranyl protein transferase I, respectively (see above).
(§3) Following electroporation, cells were plated into 6-well tissue culture dishes containing 1.5 ml of Dulbecco's-modified Eagle's media (GIBCO, Inc.) supplemented with 10% fetal calf serum and the appropriate farnesyl protein transferase inhibitors. After 24 hours, media was removed and fresh media containing the appropriate drugs was re-added.
48 hours after electroporation cells were examined under the microscope to monitor disordered cell growth induced by transforming Ras. Cells expressing transforming Ras become more rounded and refractile and overgrow the monolayer, reminiscent of the transformed phenotype. […]

[3] = molecular target: T1, geranylgeranyl protein transferase (GGPT) I (Rattus norvegicus, UniProt P53610+Q04631); assay: In vitro enzyme assay: inhibition of geranylgeranyl protein transferase I; type: biochemical
T1 construct: were partially purified from rat brain by ammonium sulfate fractionation followed by Q-Sepharose; from tissue; host or cells: rat brain
Text: 1. In vitro enzyme assays: Inhibition of farnesyl protein transferase and geranylgeranyl protein transferase.
Both farnesyl protein transferase (FPT) and geranylgeranyl protein transferase (GGPT) I were partially purified from rat brain by ammonium sulfate fractionation followed by Q-Sepharose (Pharmacia, Inc.) anion exchange chromatography essentially as described by Yokoyama et al (Yokoyama, K., et al., (1991). A protein geranylgeranyltransferase from bovine brain: Implications for protein prenylation specificity, Proc. Natl. Acad. Sci USA 88: 5302-5306, the disclosure of which is incorporated herein by reference thereto). Human farnesyl protein transferase was also expressed in E. coli, using cDNA clones encoding both the α and β subunits. The methods used were similar to those published (Omer, C. et al., (1993), Characterization of recombinant human farnesyl protein transferase: Cloning, expression, farnesyl diphosphate binding, and functional homology with yeast prenyl-protein transferase, Biochemistry 32:5167-5176). Human farnesyl protein transferase was partially-purified from the soluble protein fraction of E. coli as described above. the tricyclic farnesyl protein transferase inhibitors disclosed herein inhibited both human and rat enzyme with similar potencies. Two forms of val^12-Ha-Ras protein were prepared as substrates for these enzymes, differing in their carboxy terminal sequence. One form terminated in cysteine-valine-leucine-serine (Ras-CVLS) the other in cystein-valine-leucine-leucine (Ras-CVLL). Ras-CVLS is a substrate for the farnesyl protein transferase while Ras-CVLL is a substrate for geranylgeranyl protein transferase I. The cDNAs encoding these proteins were constructed so that the proteins contain an amino-terminal extension of 6 histidine residues. Both proteins were expressed in Escherichia coli and purified using metal chelate affinity chromatography. The radiolabelled isoprenyl pyrophosphate substrates, [^3H]farnesyl pyrophosphate and [^3H]geranylgeranyl pyrophosphate, were purchased from DuPont/New England Nuclear.
The geranylgeranyl protein transferase I assay was essentially identical to the farnesyl protein transferase assay described above, with two exceptions: [^3H]geranylgeranylpyrophosphate replaced farnesyl pyrophosphate as the isoprenoid donor and Ras-CVLL was the protein acceptor. This is similar to the assay reported by Casey et al (Casey, P. J., et al., (1991), Enzymatic modification of proteins with a geranylgeranyl isoprenoid, Proc. Natl. Acad. Sci, USA 88: 8631-8635, the disclosure of which is incorporated herein by reference thereto).

[4] = test system: Ras-CVLS processing in COS monkey kidney cells; assay: Cell-based assay: Ras-CVLS processing in transfected COS cells (immunoblot); conditions: Primates; inhibition of Ras-CVLS processing in Ras-transfected COS cells
Text: as §1, §2, §3
48 hours after electroporation cells were examined under the microscope to monitor disordered cell growth induced by transforming Ras. Cells expressing transforming Ras become more rounded and refractile and overgrow the monolayer, reminiscent of the transformed phenotype. Cells were then photographed, washed twice with 1 ml of cold phosphate-buffered saline (PBS) and removed from the dish by scraping with a rubber policeman into 1 ml of a buffer containing 25 mM Tris, pH 8.0; 1 mM ethylenediamine tetraacetic acid; 1 mM phenylmethylsulfonyl fluoride; 50 μM leupeptin; and 0.1 μM pepstatin. Cells were lysed by homogenization and cell debris was removed by centrifugation at 2000×g for 10 min.
Cellular protein was precipitated by addition of ice-cold trichloroacetic acid and redissolved in 100 μl of SDS-electrophoresis sample buffer. Samples (5-10 μl) were loaded onto 14% polyacrylamide minigels (Novex, Inc.) and electrophoresed until the tracking dye neared the bottom of the gel. Proteins resolved on the gels were electroblotted onto nitrocellulose membranes for immunodetection.
Membranes were blocked by incubation overnight at 4° C. in PBS containing 2.5% dried milk and 0.5% Tween-20 and then incubated with a Ras-specific monoclonal antibody, Y13-259 (Furth, M. E., et al., (1982), Monoclonal antibodies to the p21 products of the transforming gene of Harvey murine sarcome virus and of the cellular ras gene family, J. Virol. 43: 294-304), in PBS containing 1% fetal calf serum for one hour at room temperature. After washing, membranes were incubated for one hour at room temperature with a 1:5000 dilution of secondary antibody, rabbit anti-rat IgG conjugated to horseradish peroxidase, in PBS containing 1% fetal calf serum. The presence of processed and unprocessed Ras-CVLS or Ras-CVLL was detected using a calorimetric peroxidase reagent (4-chloro-1-naphthol) as described by the manufacturer (Bio-Rad).

## CCOC(=O)N1CCC(C2(F)c3ccc(Cl)cc3CCc3cccnc32)CC1 (stereo not shown) [Compound 530.00]
[1]; M27, 100 MPK, 14/wk, ×4
  average % tumor inhibition: 37%
[1]; M27 s.c. in athymic nu/nu mice, BID, 1-7, × 4
  % Inhibition (tumor growth relative to vehicle controls): 49%
[2]; at 6.6 μg/ml
  response to oncogenic Ras-CVLS (overgrowth of monolayer, dense foci): inhibited
[2]; at 20 μg/ml
  response to oncogenic Ras-CVLS (overgrowth of monolayer, dense foci): inhibited
[3]; FPT versus GGPT
  selective for FPT inhibition (versus GGPT): at least 13 fold
[3]; at 49 μM
  activity against GGPT: inactive
[4]
  IC50: 15.4 µM
